How the values were obtained:
[1] = target: T1, human muscarinic M3 receptor (Homo sapiens, UniProt P20309); test: Cell based potency assessment, hM3 β-lactamase assay (CHO cell β-lactamase); conditions: CHO cells recombinantly expressing human M3, NFAT-β-lactamase reporter; inhibition of 80 nM carbamyl choline signal, 4 h; IC50 converted by Cheng-Prusoff
T1 construct: expressed in transfected cells; host or cells: CHO (CHO-K1) cells
Procedure: Cell BASED POTENCY ASSESSMENT at the Human Recombinant M3 Muscarinic Receptor
M3 potency was determined in CHO-K1 cells transfected with the NFAT-Betalactamase gene. CHO (Chinese Hamster Ovary) cells recombinantly expressing the human muscarinic M3 receptor were transfected with the NFAT_β-Lac_Zeo plasmid. Cells were grown in DMEM with Glutamax-1, supplemented with 25 mM HEPES (Life Technologies 32430-027), containing 10% FCS (Foetal Calf Serum; Sigma F-7524), […] Sodium pyruvate (Sigma S-8636), NEAA (non-Essential Amino Acids; Invitrogen 11140-035) and 200 μg/ml Zeocin (Invitrogen R250-01).
hM3 β-Lactamase Assay Protocol
Cells were harvested for assay when they reached 80-90% confluency using enzyme free cell Dissociation Solution (Life technologies 13151-014) incubated with the cells for 5 min at 37° C. in an atmosphere containing 5% CO2. Detached cells were collected in warmed growth media and centrifuged at 2000 rpm for 10 min, washed in PBS (Phosphate Buffered Saline; Life Technologies 14190-094) and centrifuged again as just described. The cells were re-suspended at 2×10^5 cells/ml in growth medium (composition as described above). 20 μl of this cell suspension was added to each well of a 384 well black clear bottomed plate (Greiner Bio One 781091-PFI). The assay buffer used was PBS supplemented with 0.05% Pluronic F-127 (Sigma 9003-11-6) and 2.5% DMSO. Muscarinic M3 receptor signalling was stimulated using 80 nM carbamyl choline (Aldrich N240-9) incubated with the cells for 4 h at 37° C./5% CO2 and monitored at the end of the incubation period using a Tecan SpectraFluor+plate reader (λ−excitation 405 nm, emission 450 nm and 503 nm). M3 receptor antagonists under test were added to the assay at the beginning of the 4 h incubation period and compound activity measured as the concentration dependent inhibition of the carbamyl choline induced signal. Inhibition curves were plotted and IC50 values generated using a 4-parameter sigmoid fit and converted to Ki values using the Cheng-Prusoff correction and the KD value for carbamyl choline in the assay.

[2] = target: T1, human muscarinic M3 receptor; test: hM3 competition binding assay (3H-NMS, CHO cell membranes); conditions: CHO cell membranes expressing human M3; 3H-NMS at 5×KD, 24 hr at RT; IC50 corrected by Cheng-Prussoff
Method in brief: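 Membranes from CHO cells expressing human M3, 5 µg/well, incubated 24 h at RT with ³H-NMS at 5×KD in 20 mM HEPES pH 7.4; filtration and scintillation counting. Non-specific binding with 1 µM atropine. IC50 from specific-binding curves converted to Ki via Cheng-Prusoff.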

T1 sequence (P20309 whole entry): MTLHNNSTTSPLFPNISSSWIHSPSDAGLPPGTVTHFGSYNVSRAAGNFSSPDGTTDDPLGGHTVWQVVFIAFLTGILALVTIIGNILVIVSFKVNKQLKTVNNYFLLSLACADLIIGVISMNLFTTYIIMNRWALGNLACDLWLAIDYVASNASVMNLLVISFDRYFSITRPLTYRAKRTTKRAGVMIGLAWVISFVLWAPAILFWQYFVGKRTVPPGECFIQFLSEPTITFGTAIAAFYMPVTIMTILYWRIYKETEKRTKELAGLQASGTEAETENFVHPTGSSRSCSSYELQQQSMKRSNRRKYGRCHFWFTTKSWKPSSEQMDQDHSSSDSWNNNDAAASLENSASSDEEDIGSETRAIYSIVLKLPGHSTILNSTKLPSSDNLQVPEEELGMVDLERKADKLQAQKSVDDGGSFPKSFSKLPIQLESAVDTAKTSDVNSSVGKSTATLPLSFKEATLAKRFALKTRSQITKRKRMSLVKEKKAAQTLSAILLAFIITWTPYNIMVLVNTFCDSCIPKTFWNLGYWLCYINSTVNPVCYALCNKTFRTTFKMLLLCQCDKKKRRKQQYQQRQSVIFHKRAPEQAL

SMILES | Ki [1] [nM] | Ki [2] [nM]
O=C(Nc1ccccc1-c1ccccc1)OC1CCN(CCCCCCCCCNCc2cc(F)cc(F)c2O)CC1 [Example 29, Biphenyl-2-yl-carbamic acid 1-[9-(2-hydroxy-3,5-difluoro-benzylamino)-nonyl]-piperidin-4-yl ester] | 0.816 | 1.35
O=C(Nc1ccccc1-c1ccccc1)OC1CCN(CCCCCCCCCNCc2cccc(F)c2O)CC1 [Example 30, Biphenyl-2-yl-carbamic acid 1-[9-(2-hydroxy-3-fluoro-benzylamino)-nonyl]-piperidin-4-yl ester] | 0.705 | 1.31
O=C(Nc1ccccc1-c1ccccc1)OC1CCN(CCCCCCCCCNCc2cc(Cl)ccc2O)CC1 [Example 32, Biphenyl-2-yl-carbamic acid 1-[9-(5-chloro-2-hydroxy-benzylamino)-nonyl]-piperidin-4-yl ester] | 1.34 | 3.04
O=C(Nc1ccccc1-c1ccccc1)OC1CCN(CCCCCCCCCNCc2ccc(O)c(Cl)c2)CC1 [Example 34, Biphenyl-2-yl-carbamic acid 1-[9-(3-chloro-4-hydroxy-benzylamino)-nonyl]-piperidin-4-yl ester] | 0.96 | 0.787
O=C(Nc1ccccc1-c1ccccc1)OC1CCN(CCCCCCCCCNCc2cc(F)ccc2O)CC1 [Example 35, Biphenyl-2-yl-carbamic acid 1-[9-(2-hydroxy-5-fluoro-benzylamino)-nonyl]-piperidin-4-yl ester] | 1.64 | 1.38
O=C(Nc1ccccc1-c1ccccc1)OC1CCN(CCCCCCCCCNCc2ccc(F)c(O)c2)CC1 [Example 36, Biphenyl-2-yl-carbamic acid 1-[9-(3-hydroxy-4-fluoro-benzylamino)-nonyl]-piperidin-4-yl ester] | 2.24 | 0.235
O=C(Nc1ccccc1-c1ccccc1)OC1CCN(CCCCCCCCCNCc2ccc(Cl)c(O)c2Cl)CC1 [Example 37, Biphenyl-2-yl-carbamic acid 1-[9-(2,4-dichloro-3-hydroxy-benzylamino)-nonyl]-piperidin-4-yl ester] | 1.12 | 0.342
O=C(Nc1ccccc1-c1ccccc1)OC1CCN(CCCCCCCCCNCc2ccc(O)c(F)c2)CC1 [Example 38, Biphenyl-2-yl-carbamic acid 1-[9-(4-hydroxy-3-fluoro-benzylamino)-nonyl]-piperidin-4-yl ester] | 1.48 | 0.175

More lines, now with the values ahead:

Ki [1] [nM] | Ki [2] [nM] | SMILES
3.59 | 3.83 | O=C(Nc1ccccc1-c1ccccc1)OC1CCN(CCCCCCCCCNCc2cc(Cl)c(Cl)cc2O)CC1 [Example 28, Biphenyl-2-yl-carbamic acid 1-[9-(2-hydroxy-4,5-dichloro-benzylamino)-nonyl]-piperidin-4-yl ester]
0.728 | 2.47 | O=C(Nc1ccccc1-c1ccccc1)OC1CCN(CCCCCCCCCNCc2cc(Cl)cc(Cl)c2O)CC1 [Example 31, Biphenyl-2-yl-carbamic acid 1-[9-(2-hydroxy-3,5-dichloro-benzylamino)-nonyl]-piperidin-4-yl ester]
2.72 | 6.04 | O=C(Nc1ccccc1-c1ccccc1)OC1CCN(CCCCCCCCCNCc2cc(F)c(Cl)cc2O)CC1 [Example 33, Biphenyl-2-yl-carbamic acid 1-[9-(2-hydroxy-4-chloro-5-fluoro-benzylamino)-nonyl]-piperidin-4-yl ester]

Source: patent publication US20100016366A1, “Novel Compounds Active as Muscarinic Receptor Antagonists” (priority 2008, published 2010)
